Assays:
Swiss 3T3 cells = experiment: MEKK-induced apoptosis, microinjected Swiss 3T3 cells; assay type: cell-based
Method: (§1) Cells were prepared for the apoptosis studies as follows. Swiss 3T3 cells and REF52 cells were transfected with an expression plasmid encoding β-Galactoctosidase (β-Gal) detection of injected cells. One set of β-Gal transfected cells were then microinjected with an expression vector encoding MEKK1 370-738 protein. Another set of β-Gal transfected cells were then microinjected with an expression vector encoding truncated BXB-Raf protein.
(§2) A first group of transfected Swiss 3T3 cells and REF52 cells were treated with 50 μM beauvericin for 6 hours at 37° C. Beauvericin is a compound known to induce apoptosis in mammalian cells. A second group of cells were treated with a control buffer lacking beauvericin. The treated cells were then fixed in parafornaldehyde and permeabilized with saponin using protocols standard in the art. The permeabilized cells were then labelled by incubating the cells with a fluorescein-labelled anti-tubulin antibody (1:500; obtained from GIBCO, Gaithersburg, Md.) to detect cytoplasmic shrinkage or 10 μM propidium iodide (obtained from Sigma, St. Louis, Mo.) to stain DNA to detect nuclear condensation. The labelled cells were then viewed by differential fluorescent imaging using a Nikon Diaphot fluorescent microscope. […]

REF52 cells = experiment: MEKK-induced apoptosis, microinjected REF52 cells; assay type: cell-based
Method: as §1, §2

HEK293 cells = experiment: MEKK1 staining and TdT-mediated dUTP incorporation (DNA fragmentation) in transfected cells; assay type: cell-based, Human; conditions: after 48 hr
Method: Human embryonal kidney 293 cells (HEK293) stably expressing the EBNA-1 protein from Epstein-Barr virus (Invitrogen) were grown in Dulbecco's modified Eagle's medium (DMEM) supplemented with 100 U/ml penicillin/streptomycin and containing 10% bovine calf serum (BCS). The cells were transfected using lipofectamine (Gibco).
Cells were grown on glass coverslips and transfected using lipofectamine. Two days after transfection, the medium was removed and the cells were fixed in 2% paraformaldehyde, 3% sucrose in phosphate buffered saline (PBS) for 10 min at room temperature. Following three washes with PBS, the cells were permeabilized for 10 min with 2% Triton-X100 in PBS. After three PBS washes, the cells were blocked with filtered cultured medium for 15 min. The coverslips were then incubated 1 hour in TdT reaction mix (200 mM potassium cacodylate, 25 mM Tris.HCl, pH 6.6, 250 μg/ml BSA, 5 mM CoCl2, 0.25 U/μl TdT [Boehringer], 10 μM biotin-dUTP [Boehringer]) at 37° C. in a humidifed atmosphere. […] Images were taken using a Leica DMRXA microscope and analyzed with the SlideBook v2.0 software (Intelligent Imaging Innovations, Denver). […]

p38 kinase = p38 kinase activation, transfected HEK293 cells; assay type: cell-based, Human; conditions: transfection in HEK293 cells
L929 fibroblasts = experiment: TNF and MEKK1COOH synergy, percentage of apoptotic cells (Lac Switch clones); assay type: cell-based, murine; conditions: control L929 cells (4.1 LAC1), presence and absence of IPTG
Source text: Approximately 20% of control L929 cells became apoptotic upon TNF exposure either in the presence and absence of IPTG. In L929 cells expressing the MEKK1COOH domain, exposure to TNF and IPTG increased the percentage of apoptotic cells to 40%, approximately a 2-fold increase.

JNK = JNK assay (solid state kinase assay with GST-Jun), L929 cells; assay type: cell-based, murine
Method: JNK assay. JNK activity was measured using a solid state kinase assay in which glutathione S-transferase-c-Jun(1-79) (GST-JUN) cound to glutathione-Sepharose 4B beads was used to affinity pruify JNK and then JNK activity was measured in an in vitro kinase assay using the sepharose bound GST-Jun as a substrate (Hibi, M., et al. (1993) Genes & Development 7:2135-2148). Stimulated or unstimulated cells were lysed in 0.5% Nonidet P-40, 20 mM HEPES pH 7.2, 100 mM NaCl, 2 mM dithiothreitol, lmM EDTA, 1.0 mM phenylmethylsulfonylfluoride, 1 μg/ml aprotinin and the nuclei pelleted. Lysates were normalized for protein content. […] Binding to GST-Jun efficiently isolates the two major forms of JNK (p45and p55) and under the conditions used JNK isolation was linear for 10-250 μg of cell lysate. The lysates were rotated at 4° C. for 1-3 h. Beads were washed twice in lysis buffer and then twice in PAN (10 mM PIPES, pH 7.0, 100 mM NaCl, 21 μg/ml aprotinin). Kinase reactions were carried out at 30° C. for 15 min in 20 mM Hepes pH 7.2, 20 mM β-glycerophosphate, 10 mMp-nitrophenyl phosphate, 10 mM MgCl2, 1 mM dithiothreitol, 50 μm sodium vanadate, 10 μCi γ^32P-ATP 4300 Ci/mmole. The kinase reaction was linear from 0-30 min.

B-Raf = experiment: Raf activation assay (kinase-inactive MEK-1 phosphorylation), L929 cells; assay type: cell-based, murine
Method: (§3) RafActivation Assay Cells were serum starved and challenged in the presence or absence of the appropriate cytokine or growth factors, as described above. Cells were lysed by scraping in ice cold RIPA buffer (50 mM Tris-HCl, pH 7.2, 150 mM NaCl, 0.1% SDS, 0.5% sodium deoxycholate, 1.0% Triton X-100, 10 mM sodium pyrophosphate, 25 mM β-glycerophosphate, 2 mM sodium vanadate, 2.1 µg/ml aprotinin) and the nuclei were pelletted. The supernatants were normalized for protein content and precleared with protein A Sepharose prior to immunoprecipitation with rabbit antiserum to the C terminus of C-Raf, rabbit anti-serum to A-Raf or rabbit antiserum to B-Raf (Santa Cruz Biotech., Santa Cruz, Calif.) and protein A Sepharose for 2-3 hr at 4° C. The beads were washed twice with ice cold RIPA and twice with PAN. A third of the immunoprecipitate was diluted with SDS sample buffer and used for immunoblot analysis. […] Wild-type recombinant MEK-1 was autophosphorylated in parallel as a marker. Reactions were terminated by the addition of 12.5 μl 5× SDS sample buffer, boiled, and subjected to SDS-PAGE and autoradiography.

C-Raf = experiment: as above; assay type: cell-based, murine
Method: as §3

L929 cells = experiment: TNFα-mediated apoptosis of L929 cells (neutral red assay, propidium iodide staining); assay type: cell-based, murine
Method: Cell lines and culture. L929 cells (ATCC CCL1 were maintained in Dulbecco's modified Eagle's medium with 5% newborn claf serum and 5% bovine calf serum (BCS) supplemented with 100 ug/ml streptomycin and 100U/ml penicillin. The cells were grown in 10 cm dishes at 37° C. in 7.5% CO2. Cells were made quiescent where indicated by incubation in Dulbecco's modified Eagle's medium and 0.1% bovine serum albumin for 24 h. Recombinant murine TNFα and recombinant humanbFGF (147aa) were from R&D Systems, Minneapolis, Minn. Cells were pretreated where indicated with the MEK-1 inhibitor PD#098059 (Parke-Davis Pharmaceutical Corp. Ann Arbor, Mich.) for 1 h at 37° C. Cells were stimulated by incubation with the indicated cytokine or growth factor for various times at 37° C. […] Stimulation was stopped by rinsing the plates twice with ice cold phosphate buffered saline (PBS) and lysing the cells in the appropriate lysis buffer. Cells were scraped from the plates and nuclei were pelleted for 10 min at 14,000 RPM in a microcentrifuge.
Neutral Red Assay Uptake of the dye neutral red was used as one measure of cell viability following cytokine or growth factor treatment (Finter, N. B. (1969) J. Gen Virol. 5:419-427). 1.5×10^4-2.5×10^5 L929 cells/well were plated in 12 well tissue culture dishes in 1.25 ml of media. Cells were treated for 15-20 hr with various concentrations of TNFα and/or bFGF. 2.5 μl of 1% neutral red was added to the wells and incubated for 2 hr at 37° C. PBS. The neutral red was extracted with 1.0 ml of 50% ethanol, 50 mM Na-citrate pH 4.2 and absorbency was measured at […].
Propidium iodide staining Cells were plated on glass chamber slides (Nunc, Naperville, Ill.) at a concentration of 0.2-0.6×10^5 cells/ml. Ras expression was induced with 5 mM IPTG in Dulbecco's modified Eagle's medium with 0.1% BCS for 8-12 hr. Cells were exposed to TNFα (5 ng/ml) and/or bFGF (500 pg/ml) in Dulbecco's modified Eagle's medium with 0.1% BCS for 16 hr. The parental LACI expressing cell line (see below) was used as a control. Cells were washed twice in PBS, fixed in acetone:methanol (1:1) −20° C. for 5 min, air dried, washed twice in PBS, stained with 1 μg/ml propidium iodide (PI) in PBS for 20 min, washed in PBS, washed in H2O and mounted in 25% glycerol/PBS. PI fluorescence was observed using a Nikon inverted microscope equipped with epifluorescence and a […] filter. Images were analyzed using IP lab.

p42/p44 MAPK = experiment: MAPK assay (EGFR662-681 peptide), L929 cells; assay type: cell-based, murine
Method: MAPK Assay MAPK activity was measured exactly as described previously (Gardner, A. M., et al. (1994) Meth. Enzymol. 238:258-270) with the exception that MonoQ FPLC fractionation was replaced by step elution from a DEAE-Sephacel column using 0.5 M NaCl in loading buffer. The eluate was assayed in triplicate using the epidermal growth factor receptor 662-681 peptide (EGFR662-681) as a selective substrate for MAPK activity (Heasley, L. E., et al. (1994) American Journal of Physiology (Renal Fluid Electrolyte Physiol. 36) 267:F366-F373).

Question: “MEKK1 protein: MEKK1 370-738 protein expressed from a microinjected expression vector” was tested. Which “apoptotic morphology of expressing cells” value (Swiss 3T3 cells) did it give?
Answer: Its value is “underwent cytoplasmic shrinkage and nuclear condensation leading to apoptotic death”.

Question: And the “apoptotic morphology of expressing cells” value (REF52 cells)?
Answer: Its value is “underwent cytoplasmic shrinkage and nuclear condensation leading to apoptotic death”.

Question: “MEKK1: full length 196 kDa mouse MEKK1, HA-tagged, expressed by transfection” was tested. Which MEKK1-expressing cells apoptotic (HEK293 cells) did it give?
Answer: Its MEKK1-expressing cells apoptotic is “about 30%”.

Question: And the p38 kinase activation (p38 kinase)?
Answer: Its p38 kinase activation is “did not activate the p38 kinase”.

Question: What does the source list for TNFα?
Answer: percentage of apoptotic cells (L929 fibroblasts): Approximately 20%; concentration giving maximal JNK activation (JNK): 1 ng/mL; time of peak JNK activity (JNK): 10 to 15 min; JNK activation (JNK; 0.1 ng/ml): greater than four-fold; B-Raf activation (B-Raf): does not significantly activate; C-Raf activation (C-Raf): does not significantly activate; time required to induce a similar level of L929 cell death (L929 cells; 1 ng/ml): 24 to 48 h; L929 cells being apoptotic (L929 cells; 10 ng/ml, 15 hr): greater than 40%; concentration required to stimulate p42/p44 MAPK 2-3 fold (p42/p44 MAPK): Greater than 10 ng/ml; time to maximal stimulation of p42/p44 MAPK activity (p42/p44 MAPK): 5 to 10 min; MAPK activity stimulated above basal (p42/p44 MAPK; 1 ng/ml): 20%; effect on bFGF stimulation of MAPK activity (p42/p44 MAPK; L929 cells): little or no effect on bFGF stimulation of MAPK activity; MAPK activity (p42/p44 MAPK; L929 cells, TNFα 1 ng/ml where stated): only modest stimulatory effects

— patent US20020055130A1, “Method and product for regulating apoptosis” (National Jewish Center for Immunology and Respiratory …, priority 1997, published 2002)
